What all share (test): ≥ marks a high value that may be exact or a test limit, other limits are often not marked, values filed in µg/mL are converted to µM
Assay [1] relates to Candida glabrata DSM 11226.
The test system of assay [2] is Staphylococcus aureus ATCC 25923.
Assay [3] relates to Staphylococcus epidermidis ATCC 12228.
The subject of assay [4] is Pseudomonas aeruginosa ATCC 27857.
Assay [5] relates to Candida krusei DSM 6128.
For assay [6], the system named is Escherichia coli ATCC 25922.
Assay [7] has as its system Bacillus cereus PCM 2003.
Assay [8] has as its system Candida albicans ATCC 10231.
Assay [9] has as its system Candida tropicalis.
In assay [10] the test system is Staphylococcus aureus KCTC 3881.
The test system of assay [11] is Shigella dysenteriae ATCC 9752.
In assay [12] the test system is Proteus mirabilis ATCC 25933.
The test system of assay [13] is Micrococcus luteus ATCC 4698.
The subject of assay [14] is Escherichia coli KCTC 2433.
The test system of assay [15] is Bacillus subtilis ATCC 6633.
Assay [16] relates to Klebsiella pneumoniae ATCC 10031.
Assay [17] relates to Candida albicans ATCC 36232.
In assay [18] the test system is Pseudomonas aeruginosa ATCC 9027.
Assay [19] concerns Staphylococcus aureus 75.
Assay [20] has as its system Acinetobacter baumannii 97830.
The subject of assay [21] is Pseudomonas aeruginosa ATCC 27853.
The test system of assay [22] is Escherichia coli 804.
Assay [23] deals with Pseudomonas aeruginosa 73.
The test system of assay [24] is Staphylococcus aureus 113.
Assay [25] relates to Escherichia coli 780.
In assay [26] the test system is Pseudomonas aeruginosa 50.
For assay [27], the system named is Staphylococcus aureus ATCC 29213.
Assay [28] concerns Acinetobacter baumannii ATCC 19606.
For assay [29], the system named is Acinetobacter baumannii 9931.
Assay [30] deals with Klebsiella pneumoniae ATCC 700603.
The test system of assay [31] is Bacillus subtilis ATCC 23857.
Assay [32] deals with Pseudomonas aeruginosa 3552.
Assay [33] deals with Salmonella enterica serovar typhimurium MS7953s.
For assay [34], the system named is Candida albicans C627.
Assay [35] has as its system Salmonella enterica subsp. enterica serovar Typhimurium ATCC 14028s.
Assay [36] deals with Aeromonas salmonicida 97-4.
Assay [37] relates to Staphylococcus epidermidis C621.
Assay [38] deals with Aeromonas salmonicida 99-1.
Assay [39] relates to Escherichia coli DC2.
Assay [40] relates to Pseudomonas aeruginosa Z61.
In assay [41] the test system is Staphylococcus aureus C623.
Assay [42] concerns Aeromonas salmonicida A449.
The subject of assay [43] is Escherichia coli UB1005.
In assay [44] the test system is Escherichia coli CGSC 4908.
In assay [45] the test system is Pseudomonas aeruginosa K799.

Data on five molecules can be found in DBAASP.

Values after ≈ are worked out from the molar mass of the structure shown. Values joined by “and” are separate entries in the source; they are usually repeats but may differ in a detail not shown here. Identical values can stand only once.

With `CSCC[C@H](NC(=O)[C@H](C)NC(=O)[C@H](CCCN=C(N)N)NC(=O)[C@H](CCCCN)NC(=O)[C@H](Cc1c[nH]c2ccccc12)NC(=O)[C@H](CCC(N)=O)NC(=O)[C@H](Cc1ccccc1)NC(=O)[C@@H](N)CS)C(=O)N[C@@H](CCCN=C(N)N)C(=O)N[C@@H](CCCCN)C(=O)N[C@H](C(=O)N[C@@H](CCCN=C(N)N)C(N)=O)C(C)C` [CFQWKRAMRKVR], the MIC was at least 155 µM in assay [1]; 39.2 µM (≈ 63 µg/mL) in assay [2]; 2.49 µM (≈ 4 µg/mL) in [3]; at least 77.7 µM in assay [4]; at least 155 µM in assay [5]; 9.94 µM (≈ 16 µg/mL) in assay [6]. The MIC in assay [7] is at least 155 µM; in [8], over 155 µM; in assay [9], at least 155 µM.

As to `CC(C)C[C@H](NC(=O)[C@H](CC(C)C)NC(=O)[C@H](CC(C)C)NC(=O)[C@@H]1CCCN1C(=O)[C@H](CC(C)C)NC(=O)[C@@H](N)Cc1ccccc1)C(=O)N[C@@H](C)C(=O)NCC(=O)N[C@@H](CC(C)C)C(=O)N1CCC[C@H]1C(=O)N[C@@H](CC(C)C)C(=O)N[C@@H](CCCCN)C(=O)N[C@@H](CC(C)C)C(=O)N[C@H]1CSSC[C@@H](C(=O)O)NC(=O)[C@H](CCCCN)NC(=O)[C@H](CCCCN)NC(=O)[C@H](Cc2ccccc2)NC(=O)[C@H](CC(C)C)NC(=O)[C@H](Cc2ccccc2)NC1=O` [FLPLLLAGLPLKLCFLFKKC], the MIC in assay [3] was 21.9 µM (≈ 50 µg/mL); in assay [10], 5.49 µM (≈ 12.5 µg/mL); in assay [11] it was at least 43.9 µM; in [12] it was at least 43.9 µM; in assay [13], 2.74 µM (≈ 6.24 µg/mL); in assay [14] it was at least 43.9 µM. For the same molecule, the MIC in assay [15] is 21.9 µM (≈ 50 µg/mL); in assay [16], at least 43.9 µM; in assay [17] it was 21.9 µM (≈ 50 µg/mL); in assay [18] it was over 43.9 µM.

On to `NC(=O)[C@H](Cc1ccccc1)NC(=O)[C@H](Cc1c[nH]c2ccccc12)NC(=O)[C@H](CCCN=C(N)N)NC(=O)[C@H](Cc1c[nH]c2ccccc12)NC(=O)[C@H](Cc1c[nH]c2ccccc12)NC(=O)[C@H](Cc1c[nH]c2ccccc12)NC(=O)[C@H](CCCN=C(N)N)NC(=O)[C@H](Cc1c[nH]c2ccccc12)NC(=O)[C@@H](N)Cc1ccccc1` [FWRWWWRWF], for which the MIC in assay [19] was 8 µM (≈ 12.4 µg/mL); in assay [3], 4 µM (≈ 6.22 µg/mL); in [20], at least 32 µM; in assay [21] it was over 128 µM; in [22], at least 64 µM; in assay [23] it was at least 128 µM. Besides, the MIC is 8 µM (≈ 12.4 µg/mL) in [24]; at least 32 µM in assay [25]; at least 128 µM in assay [26]; 4 µM (≈ 6.22 µg/mL) in assay [27]; 64 µM (≈ 99.5 µg/mL) in assay [28]; at least 32 µM in assay [29]. In addition, the MIC in [30] was 16 µM (≈ 24.9 µg/mL); in [31], 2 µM (≈ 3.11 µg/mL); in assay [18] it was 128 µM (≈ 199 µg/mL).

Consider `CC[C@H](C)[C@H](NC(=O)CNC(=O)[C@@H](NC(=O)[C@H](Cc1cnc[nH]1)NC(=O)[C@H](CCCCN)NC(=O)[C@H](CCCCN)NC(=O)[C@H](CC(C)C)NC(=O)[C@H](CCCCN)NC(=O)[C@H](Cc1c[nH]c2ccccc12)NC(=O)[C@@H](N)CCCCN)[C@@H](C)CC)C(=O)NCC(=O)N[C@@H](CCCCN)C(=O)N[C@@H](Cc1cnc[nH]1)C(=O)N[C@@H](Cc1ccccc1)C(=O)N[C@@H](CC(C)C)C(=O)N[C@@H](CO)C(=O)N[C@@H](C)C(=O)N[C@@H](CCCCN)C(=O)N[C@@H](CCCCN)C(=O)N[C@@H](Cc1ccccc1)C(N)=O` [KWKLKKHIGIGKHFLSAKKF], for which, in assay [32], the MIC is 8 µM and 4 µM.

As to `CC[C@H](C)[C@H](NC(=O)[C@H](CO)NC(=O)[C@H](CCCCN)NC(=O)[C@@H](NC(=O)[C@@H](NC(=O)[C@H](CC(=O)O)NC(=O)[C@H](CCC(=O)O)NC(=O)[C@@H](NC(=O)[C@H](CO)NC(=O)[C@@H](N)CCCNC(=N)N)[C@@H](C)O)[C@@H](C)CC)[C@@H](C)CC)C(=O)N[C@@H](CO)C(=O)NCC(=O)NCC(=O)NCC(=O)N[C@@H](Cc1ccccc1)C(=O)N[C@@H](CC(C)C)C(=O)N[C@@H](CC(N)=O)C(=O)N[C@@H](C)C(=O)N[C@@H](CCSC)C(=O)N[C@@H](CC(N)=O)C(=O)N[C@@H](C)C(C)=O` [RSTEDIIKSISGGGFLNAMNA], the MIC in assay [33], in assay [34], in assay [35], in [36], in [37] and in assay [38] was 29.3 µM (≈ 63.9 µg/mL) in each case. In addition, the MIC in assay [39], in assay [40], in assay [41], in assay [42], in assay [43] and in assay [44] was 29.3 µM (≈ 63.9 µg/mL) throughout. In addition, in assay [45], the MIC was determined as 29.3 µM (≈ 63.9 µg/mL).

The term MIC denotes the smallest concentration in the dilution series that meets the test's criterion for growth inhibition. Read a low MIC as greater potency.
